US20240270715A1, “INHIBITORS OF TRANSGLUTAMINASES” (ZEDIRA GMBH, priority 2021, published 2024)
Read-outs that look alike come from different tables or passages of the source.

What was measured:
[1] = Log D by shake flask method (octanol / PBS pH 7.4, HPLC); type: physicochemical; conditions: octanol / PBS pH 7.4, shake flask
In short: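 Log D is derived by HPLC measurement of how the compound distributes between octanol and pH 7.4 phosphate-buffered saline in a shake flask.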

[2] = Caco-2 permeability assay (CacoReady kit); type: in vitro ADME; conditions: human
In short: (§1)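 Compounds are tested on pre-formed Caco-2 barriers supplied as a ready-to-use kit, following the kit protocol, and the Papp value is derived to estimate intestinal absorption.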

[3] = target: T1, recombinant human transglutaminase 2 (Homo sapiens, UniProt P21980); assay: Transglutaminase assay: incorporation of dansylcadaverine into dimethylcasein (DCC-assay); type: biochemical; conditions: recombinant human TG2 10 nM, dansylcadaverine/dimethylcasein; read-out: IC50 TG2
T1 sequence (P21980 1-687): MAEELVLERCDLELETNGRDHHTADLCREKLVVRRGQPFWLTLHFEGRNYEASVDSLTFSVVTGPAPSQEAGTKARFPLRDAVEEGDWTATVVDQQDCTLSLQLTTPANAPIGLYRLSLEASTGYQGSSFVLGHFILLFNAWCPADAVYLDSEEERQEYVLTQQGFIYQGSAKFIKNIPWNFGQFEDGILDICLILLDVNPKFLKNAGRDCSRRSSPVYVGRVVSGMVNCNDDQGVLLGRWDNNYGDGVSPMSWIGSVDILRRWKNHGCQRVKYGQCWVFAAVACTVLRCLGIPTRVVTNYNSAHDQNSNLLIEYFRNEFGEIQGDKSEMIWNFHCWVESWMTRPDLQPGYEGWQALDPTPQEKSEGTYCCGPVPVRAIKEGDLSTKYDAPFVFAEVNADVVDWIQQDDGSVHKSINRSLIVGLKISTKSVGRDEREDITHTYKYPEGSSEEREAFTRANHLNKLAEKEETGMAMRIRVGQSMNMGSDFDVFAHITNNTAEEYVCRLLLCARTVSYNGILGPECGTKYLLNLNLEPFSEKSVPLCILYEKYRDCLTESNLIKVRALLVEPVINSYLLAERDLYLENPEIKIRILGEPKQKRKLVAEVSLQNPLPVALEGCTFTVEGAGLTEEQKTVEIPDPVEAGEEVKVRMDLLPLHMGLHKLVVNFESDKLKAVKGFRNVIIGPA
In short: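 Recombinant human TG2 (10 nM final) incorporates dansylcadaverine (16.7 μM) into N,N-dimethylcasein (4 μM) in Tris-HCl buffer, pH 8.0, with 10 mM CaCl2 and 10 mM glutathione. Fluorescence (λex 330, λem 500 nm) followed 30 min. The slope between 20–30 min gives activity versus DMSO control, and IC50 comes from the concentration–activity plot.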

Caco-2 barrier = assay: Caco-2 permeability assay (CacoReady kit); type: in vitro ADME
In short: as §1

SMILES | logD ([1]; read-out: logD) | Papp [2] [×10⁻⁶ cm/s] | IC50 [3] [nM] | logD [1] | Papp (Caco-2 barrier)
CCNC(=O)C(=O)CC[C@H](NC(=O)c1nccn1C)C(=O)Nc1cccn(CC(=O)NC23CC4CC(CC(CC)(C4)C2)C3)c1=O [Compound I-16, (S)-N1-ethyl-N6-(1-(2-(3-ethyladamantane-1-amino)-2-oxoethyl)-2-oxo-1,2-dihydropyridin-3-yl)-5-(1-methyl-1H-imidazole-2-carboxamido)-2-oxohexanediamide] | 1 to 3 | < 1 | 600 to 3500 | – | –
CCNC(=O)C(=O)CC[C@H](NC(=O)c1cn(C)cn1)C(=O)Nc1cccn(CC(=O)NC23CC4CC(CC(CC)(C4)C2)C3)c1=O [Compound I-15, (S)-N1-ethyl-N6-(1-(2-(3-ethyladamantane-1-amino)-2-oxoethyl)-2-oxo-1,2-dihydropyridin-3-yl)-5-(1-methyl-1H-imidazole-4-carboxamido)-2-oxohexanediamide] | 1 to 3 | < 1 | 600 to 3500 | – | –
CCNC(=O)C(=O)CC[C@H](NC(=O)c1cncn1C)C(=O)Nc1cccn(CC(=O)NC23CC4CC(CC(O)(C4)C2)C3)c1=O [Compound I-7, (S)-N1-ethyl-N6-(1-(2-(3-hydroxyadamantane-1-amino)-2-oxoethyl)-2-oxo-1,2-dihydropyridin-3-yl)-5-(1-methyl-1H-imidazole-5-carboxamido)-2-oxohexanediamide] | < 1 | < 1 | 600 to 3500 | – | –

The remaining lines, values ahead:

logD ([1]; read-out: logD) | Papp [2] [×10⁻⁶ cm/s] | IC50 [3] [nM] | logD [1] | Papp (Caco-2 barrier) | SMILES
3 to 5 | < 1 | 600 to 3500 | – | – | CCNC(=O)C(=O)CC[C@H](NC(=O)c1cn(C2CCCC2)cn1)C(=O)Nc1cccn(CC(=O)NC23CC4CC(CC(CC)(C4)C2)C3)c1=O [Compound I-19, (S)-2-(1-cyclopentyl-1H-imidazole-4-carboxamido)-N6-ethyl-N1-(1-(2-(3-ethyladamantane-1-amino)-2-oxoethyl)-2-oxo-1,2-dihydropyridin-3-yl)-5-oxohexanediamide]
3 to 5 | 1 to 10 | < 150 | – | – | CCNC(=O)C(=O)CC[C@H](NC(=O)c1cc(Br)sc1Br)C(=O)Nc1cccn(CC(=O)NC2C3CC4CC(C3)CC2C4)c1=O (stereo partly drawn) [Compound I-47, (S)-2-(2,5-dibromothiophene-3-carboxamido)-N6-ethyl-N1-(1-(2-(2-adamantylamino)-2-oxoethyl)-2-oxo-1,2-dihydropyridin-3-yl)-5-oxohexanediamide]
– | – | – | B (B: 1 ≤ logD < 3) | A (A: Papp < 1 × 10^−6 cm/s) | CCNC(=O)C(=O)CC[C@H](NC(=O)c1ccn(C)n1)C(=O)Nc1cccn(CC(=O)N[C@]23C[C@H]4C5CC6CC4[C@H](C2)C(C6)[C@H]5C3)c1=O (single isomer, unassigned) [Compound I-80]
